For assay [1], the system named is Calu-6 non-small cell lung cancer cell line of a mutation RONΔ155 type. Kind of assay: MTS assay, cell growth inhibitory ability, Calu-6. The conditions noted are these: Homo sapiens; Calu-6, RON mutation Δ155, 72 hours. The class given is cell-based. As for the experimental part: (§1) In order to compare and confirm the cell growth inhibitory ability of Examples 1 (WM-S1-030) to 5, positive control 1 (BMS-777607) and positive control 2 (AMG-510) in four non-small cell lung cancer cell lines of a mutation RONΔ155 type (Calu-6, A549, NCI-H358, NCI-H1944), MTS assay was carried out.
(§2) For MTS assay, 1,000 cells of each non-small cell lung cancer cell line per well were seeded in a 96-well-plate, and 24 hours later, treated with the compounds of Examples 1 to 5, positive control 1 and positive control 2 at various concentrations ([…]) in 100 μL of 10% FBS-RPMI medium (Welgene) per each well. Thereafter, the cells were cultured for 72 hours, and then 20 μL of MTS solution (Promega) was added and cultured for 2 hours, and then absorbance was measured at 490 nm. The cytotoxicity was analyzed by deriving the IC50 for the compounds of Examples 1 to 5, positive control 1 and positive control 2 using GraphPad Prism™ 5.
(In general: Formazan colour is commonly taken as a measure of viable cells.)

In assay [2] the test system is A549 non-small cell lung cancer cell line of a mutation RONΔ155 type. Kind of assay: MTS assay, cell growth inhibitory ability, A549. The class given is cell-based. To be noted: Homo sapiens; A549, RON mutation Δ155, 72 hours. Here is the method: as §1, §2
In assay [3] the test system is NCI-H358 non-small cell lung cancer cell line of a mutation RONΔ155 type. Kind of assay: MTS assay, cell growth inhibitory ability, NCI-H358. It counts as cell-based. The conditions noted are these: Homo sapiens; NCI-H358, RON mutation Δ155, 72 hours. Here is the method:
as §1, §2

Assay [4] has as its system NCI-H1944 non-small cell lung cancer cell line of a mutation RONΔ155 type. Kind of assay: MTS assay, cell growth inhibitory ability, NCI-H1944. It counts as cell-based. The conditions noted are these: Homo sapiens; NCI-H1944, RON mutation Δ155, 72 hours. As for the experimental part:
as §1, §2

Assay [5] has as its system A549 non-small cell lung cancer cell line of a mutation RONΔ155 type. Kind of assay: Cell killing efficacy, trypan blue exclusion assay, A549. It counts as cell-based. To be noted: A549, 1 μM, 48 hours, FIG. 1. Here is the method: (§3) A549 and NCI-H358, which are non-small cell lung cancer cell lines of a mutation RONΔ155 type, were dispensed, and 24 hours later, treated with 1 μM of the compounds of Examples 1 (WM-S1-030) to 5, positive control 1 (BMS-777607) and positive control 2 (AMG-510), respectively, while replacing the medium. After 48 hours, the cells and the cell fluid were harvested (1500 rpm, 4 min), and live cells and dead cells were quantified through trypan blue (15250-061, Gibco) exclusion assay. Statistical analysis was performed using T-test in Excel.

Assay [6] has as its system NCI-H358 non-small cell lung cancer cell line of a mutation RONΔ155 type. Put plainly: Cell killing efficacy, trypan blue exclusion assay, NCI-H358. It counts as cell-based. To be noted: NCI-H358, 1 μM, 48 hours, FIG. 1. Here is the method: as §3
In assay [7] the test system is NCI-H460 (mRONΔ165) non-small cell lung cancer cell line transplanted mouse model. Kind of assay: Tumor growth inhibition in NCI-H460 transplanted animal model. To be noted: NCI-H460 xenograft, 50 mg/kg, once a day for 2 weeks. It counts as in vivo. Here is the method:
It was confirmed whether tumor growth was inhibited by administering Example 1 (WM-S1-030) at a dose of 50 mpk to a mouse model transplanted with NCI-H460, which is a non-small cell lung cancer cell line of a mutation RONΔ165 type. Specifically, 5-week-old female BALB/c-nude mice were purchased and acclimatized for 1 week. Thereafter, NCI-H460 (2×10^6 cells/mouse), a non-small cell lung cancer cell line of a mutation RONΔ165 type, was diluted in PBS and Matrigel, and 200 μL was injected subcutaneously into the right dorsal side of the mouse. When the size of the tumor reached about 100 mm^3, the negative control (excipient) and Example 1 were orally administered. In this case, positive control 1 (BMS-777607) was administered at a dose of 50 mpk. The drug was administered once a day for 2 weeks, and the tumor size and body weight were measured twice a week. After the drug administration was completed, the mice were euthanized, the tumor was extracted, and the weight was measured.

The results in this text go back to patent US20230241073A1, “PHARMACEUTICAL COMPOSITION FOR PREVENTING OR TREATING NON-SMALL CELL LUNG CANCER ASSOCIATED WITH RON MUTANTATION, AND METHOD USING SAME” (WELLMARKER BIO CO., LTD., priority 2020, published 2023).

Where a name gives a salt, the structure may show the parent alone.

What is called IC50 is the concentration needed to halve the response being measured. Low readings indicate inhibition by little substance, high ones a need for much substance. Turning to `C=CC(=O)N1CCN(c2nc(=O)n(-c3c(C)ccnc3C(C)C)c3nc(-c4c(O)cccc4F)c(F)cc23)[C@@H](C)C1` [Positive control 2, reference compound], the IC50 in assay [1] is over 10000 nM; in assay [2], over 10000 nM; in assay [3], 50 nM; in assay [4], over 10000 nM. The “Cell killing efficacy (cell death)” value in assay [5] and in assay [6] was “response to the drug was low” in each case.

`CCOc1ccn(-c2ccccc2)c(=O)c1C(=O)Nc1ccc(Oc2ccnc3cc(-c4ccc(CNCCOC)cn4)sc23)c(F)c1` [Example 2, 4-ethoxy-N-(3-fluoro-4-{[2-(5-{[(2-methoxyethyl)amino]methyl}pyridin-2-yl)thieno[3,2-b]pyridin-7-yl]oxy}phenyl)-2-oxo-1-phenyl-1,2-dihydropyridine-3-carboxamide hydrochloride]: the IC50 in assay [1] was 7290 nM; in assay [2] it was 1940 nM; in assay [3] it was 9110 nM; in assay [4] it was over 10000 nM.

With `COc1cc2c(Oc3ccc(NC(=O)c4c5c(cn(-c6ccc(F)cc6)c4=O)CCO5)cc3F)ccnc2cc1OCCCN1CC(C#N)C1` [Example 5, N-[4-({7-[3-(3-cyanoazetidin-1-yl)propoxy]-6-methoxyquinolin-4-yl}oxy)-3-fluorophenyl]-5-(4-fluorophenyl)-6-oxo-2,3,5,6-tetrahydrofuro[3,2-c]pyridine-7-carboxamide], the IC50 in assay [1] was found to be 1330 nM; in assay [2], 190 nM; in assay [3] it was 270 nM; in assay [4], 310 nM.

In the case of `CCOc1ccn(-c2ccc(F)cc2)c(=O)c1C(=O)Nc1ccc(Oc2ccnc(N)c2Cl)c(F)c1` [Positive control 1, N-{4-[(2-amino-3-chloro-4-pyridinyl)oxy]-3-fluorophenyl}-4-ethoxy-1-(4-fluorophenyl)-2-oxo-1,2-dihydro-3-pyridinecarboxamide, reference compound], the IC50 in assay [1], in assay [2], in assay [3] and in assay [4] was over 10000 nM in each case. Besides, the “Cell killing efficacy (cell death)” value in assay [5] and in assay [6] was “response to the drug was low” each time. The “Tumor growth inhibition rate (TGI, %)” value in assay [7] came out at 26.1 ± 1.7%.

Turning to `COc1cc2c(Oc3ccc(NC(=O)c4c5c(cn(-c6ccc(F)cc6)c4=O)CCO5)cc3F)ccnc2cc1OCCN1CCOCC1` [Example 4, N-(3-fluoro-4-{[6-methoxy-7-(2-morpholinoethoxy)quinolin-4-yl]oxy}phenyl)-5-(4-fluorophenyl)-6-oxo-2,3,5,6-tetrahydrofuro[3,2-c]pyridine-7-carboxamide], the IC50 stood at 850 nM in assay [1], 370 nM in assay [2], 890 nM in assay [3] and 600 nM in assay [4].

As for `CCOc1ccn(-c2ccccc2)c(=O)c1C(=O)Nc1ccc(Oc2ccnc3cc(-c4ccc(CN5CCN(C)CC5)cn4)sc23)c(F)c1` [Example 3, hydrochloride], the IC50 in assay [1] worked out at 1550 nM; in assay [2] it was 610 nM; in assay [3], 2610 nM; in assay [4], 2160 nM.
